These results are taken from patent US20050228041A1, “Protective and therapeutic uses for tocotrienols” (priority 2003, published 2005).

Molecules are shown by their SMILES.

Assay [1] deals with HT4 neurons. The assay is described as follows: Glutamate-induced death of HT4 neurons (propidium iodide exclusion flow cytometry, cell counts). Format: cell-based, mouse. Here is the method: Referring to FIG. 1, primary rat immature cortical neurons (A-C) or HT4 (D) were either treated or not with α-tocotrienol (as indicated) for 5 min and challenged with either glutamate (10 mM; A); L-homocysteic acid (1 mM; B); or buthionine sulfoximine (0.15 mM; BSO) for 24 h. […] Cells were counted at 12, 24 and 36 h after glutamate challenge.
(§1) First, we tested for the involvement of 12-LOX in the execution of glutamate-induced death in our model. We started by using the 12-LOX specific inhibitor baicalein or BL15. Referring to FIG. 3, HT4 neurons (A) were either treated or not with a-tocotrienol (250 nM) or […] (2.5 μM, 12-lipoxygenase inhibitor) for 5 min and then challenged with glutamate (10 mM). Cell viability was determined using propidium iodide (PI) exclusion flow cytometry assay. PI−=live; PI+=dead. Rat primary immature cortical neurons (B-D) were either treated or not with α-tocotrienol (100 nM) or BL15 (2.5 μM) for 5 min and challenged either with glutamate (10 mM; B); L-homocysteic acid (1 mM; C) or buthionine sulfoximine (0.15 mM; BSO; D) for 24 h. Arachidonic acid, 50 μM for 24h. BL15, Baicalein 5,6,7-trihydroxy-flavone.
Cell culture. Mouse hippocampal HT4 cells, were grown in Dulbecco's Modified Eagle Medium supplemented with 10% fetal calf serum, penicillin (100 U/ml) and streptomycin (100 μg/ml) at 37° C. in a humidified atmosphere containing 95% air and 5% CO2. HT4 cells were provided by Dr. D. E. Koshland Jr. (University of California at Berkeley) (Sen et al., 2000). Primary cortical neurons. Cells were isolated from the cerebral cortex of rat feti (Sprague Dawley; day 17 of gestation) or mouse feti (C57BL/6 mice, day 14 of gestation) as described (Murphy et al., 1990). For 12-LOX knockout studies, neurons were isolated from the feti of B6.129S2-Alox15^tm1Fun (Jackson Laboratory, […].). After isolation from the brain, cells were counted and seeded in culture plates at a density of 2-3×10^6 cells per 35 mm plate (Murphy et al., 1990). Cells were grown in Minimal Essential Medium (MEM) supplemented with 10% heat-inactivated fetal bovine serum, 40 μM cystine and antibiotics (100 μg/ml streptomycin, 100 units/ml penicillin, 0.25 μg/ml amphotericin). Cultures were maintained at 37° C. in 5% CO2 and 95% air in a humidified incubator. All experiments were carried out 24 h after plating.
Treatment with neurotoxic agents. Immediately before experiments, culture media was replaced with fresh medium supplemented with serum and antibiotics. Glutamate (10 mM) was added to the media as aqueous solution (Han et al., 1997a; Sen et al., 2000; Tirosh et al., 2000). […] Other agents used to induce death in neuronal cells have been described in the pertinent figure legends.
Vitamin E treatment. Stock solutions (10^3X of working concentration) of α-tocotrienol was prepared in ethanol. […]
Determination of cell viability. Viability of HT4 cells was determined using propidium iodide exclusion assay using the flow cytometer as described by us previously (Sen et al., 2000; Tirosh et al., 2000). Because primary neuronal cultures tend to aggregate during flow cytometry, the viability of these cells was assessed by measuring lactate dehydrogenase (LDH) leakage (Han et al., 1997a) from cells to media 24 h following glutamate treatment using in vitro toxicology assay kit from Sigma Chemical Co. (St. Louis, Mo., USA). […]

Another assay deals with primary neurons. Description: Cellular glutathione (GSH) in glutamate-treated primary neurons (HPLC-coulometric). It is filed as cell-based, rat. The note with it: glutamate 10 mM; α-tocotrienol 100 nM or BL15 2.5 μM. The protocol: as §1, with “5,6,7-trihydroxy-flavone. […] B-E: †, lower compared to the corresponding control non-treated group; *, higher compared to the corresponding toxin-treated group. P<0.05.” for “5,6,7-trihydroxy-flavone.”
Glutathione assay. Glutathione (GSH) was detected using a HPLC-coulometric electrode array detector (Coularray Detector—model 5600 with 12 channels; ESA Inc., Chelmsford, Mass.). […] Glutathione was detected at channels set at following potentials: I) 600 mV, II) 700 mV; and II) 800 mV. Signals from channel set at 800 mV were used for quantification (Sen et al., 2002).

Assay [2] deals with HT4 neurons. The note with it: nM concentrations; Sen et al., 2000; cited from earlier work.

`CC(C)=CCC/C(C)=C/CC/C(C)=C/CC[C@]1(C)CCc2c(C)c(O)c(C)c(C)c2O1` [α-tocotrienol]: the “protection against glutamate-induced toxicity / loss of cell viability of HT4” value in the assay with HT4 neurons [1] (glutamate 10 mM, tocotrienol 100 nM (nM levels) 5 min before) is recorded as “protect against loss of cell viability”. For the same compound, the “proliferation / growth rate of glutamate-treated HT4 cells” value with HT4 neurons [1] (tocotrienol 100 nM (nM levels), cells counted 12, 24 and 36 h after glutamate) is given as “preserve the normal growth rate”. The “cellular glutathione (GSH) in protected glutamate-treated primary neurons” value in the assay on primary neurons is on record as “loss of cellular glutathione”. For the same compound, in the assay with HT4 neurons [2], the “protection of HT4 neurons from glutamate-induced death (previously reported)” value is on record as “protects”.
